{"source": "paper PMC7353089", "about": "“The Hepatotoxicity of Alantolactone and Germacrone: Their Influence on Cholesterol and Lipid Metabolism in Differentiated HepaRG Cells” (Nutrients, 2020)", "key": {"HepG2": {"tested_on": "HepG2", "details": "HepG2, 24 h, read-out: Previously Reported IC50 Values (24 h), cited from earlier work"}, "[1]": {"tested_on": "proliferative liver (HepG2, HuH-7, LO2), breast (MCF7, MDA-MB-231), and glioblastoma cancer cell lines", "details": "after 12 to 24 h; read-out: IC50 values in proliferative cancer cell lines (approximate); cited from earlier work"}, "CYP3A4 mRNA": {"tested_on": "CYP3A4 mRNA", "assay": "RT-qPCR mRNA expression in dHepaRG cells", "details": "single exposure, also at other than toxic concentrations", "experimental": "The mRNA and protein expression changes were measured after a single administration of ALA and GER. Three concentrations were selected for each compound (non-toxic, non-toxic/slightly toxic and toxic). The cholesterol level of the dHepaRG cells was measured after a multiple exposure of the highest non-toxic concentrations of tested compounds. ATL (30 µM) and GER (100 µM) were administered four times every 24 h. The expression changes of genes and proteins related to cholesterol metabolism were measured in both single and multiple exposure experiments.\nAll treatments were performed in triplicates and every experiment was performed three times. The cells were washed twice with ice cold phosphate-buffered saline (PBS), scrapped and stored at −80 °C until use. […] The measurement of absorbance at 260 and 280 nm using the NanoDrop ND-1000 UV–VIS Spectrophotometer (Thermo Fisher Scientific, Pardubice, Czech Republic) was used to determine RNA yields and purity. […] Fluorescence data were recorded at the end of each amplification step. Relative expression levels of the target genes were calculated as fold changes in triplicates for each group using the 2^−ΔΔCt method by normalization to the geometric mean of the Ct values of Sdha and Ywhaz, which were used as reference genes."}, "dHepaRG cells": {"tested_on": "dHepaRG cells", "assay": "Cholesterol level (Amplex Red Cholesterol Assay kit)", "format": "cell-based, human", "details": "multiple exposure: four applications every 24 h, cells collected 12 h after the last; 30 μM ATL, 100 μM GER", "experimental": "The cholesterol content in the dHepaRG cells was tested using the Amplex Red Cholesterol Assay kit (Invitrogen) according to the manufacturer’s instructions and as per An et al.. The cells were collected 12 h after the last exposure of the tested compounds in a 4-day exposure with a medium change every 24 h. The cells were rinsed three times in PBS to eliminate residual growth medium. Whole cell extracts were prepared by 0.5 mL of RIPA lysis buffer (0.5% sodium deoxycholate, 0.1% SDS, 1% NP-40, 150 mM NaCl, 1 mM DTT, 50 mM Tris–HCl (pH = 7.4) and phenylmethanesulfonyl fluoride. Fluorescence was measured using a microplate reader (Tecan Infinite M200) at 530 nm excitation and 590 nm emission wavelengths. The total cholesterol (TC) content was determined by measuring the cholesterol concentration following digestion with cholesterol esterase (CE). To measure the free cholesterol (FC), CE was omitted from the assay. Three independent experiments were performed. The values obtained from a cholesterol standard curve were normalized to protein content, measured by a BCA assay."}, "SCD mRNA": {"tested_on": "SCD mRNA", "assay": "RT-qPCR mRNA expression in dHepaRG cells", "format": "cell-based, human", "details": "single exposure, 6, 12 and 24 h", "quoted_text": "(§1) All treatments were performed in triplicates and every experiment was performed three times. The cells were washed twice with ice cold phosphate-buffered saline (PBS), scrapped and stored at −80 °C until use. Total RNA from cells was isolated using TriReagent according to the manufacturer’s instructions (Biotech, Prague, Czech Republic). The purified RNA was dissolved in 40 µL of diethyl pyrocarbonate (DEPC)-treated water (0.01% DEPC in HPLC water, autoclaved) and stored at −80 °C. The measurement of absorbance at 260 and 280 nm using the NanoDrop ND-1000 UV–VIS Spectrophotometer (Thermo Fisher Scientific, Pardubice, Czech Republic) was used to determine RNA yields and purity. Subsequently, the RNA (4 µg) was treated with 2 U of DNase I (New England Biolabs, Ipswich, MA, USA) in a final volume of 30 µL for 25 min at 37 °C, 1.5 µL of 0.1 M ethylenediaminetetraacetic acid was added and the DNAse was inactivated by heat (5 min at 75 °C). […] Fluorescence data were recorded at the end of each amplification step. Relative expression levels of the target genes were calculated as fold changes in triplicates for each group using the 2^−ΔΔCt method [28] by normalization to the geometric mean of the Ct values of Sdha and Ywhaz, which were used as reference genes."}, "PLIN2 mRNA": {"tested_on": "PLIN2 mRNA", "assay": "RT-qPCR mRNA expression in dHepaRG cells", "format": "cell-based, human", "details": "single exposure, the highest concentrations", "quoted_text": "(§2) Three concentrations were selected for each compound (non-toxic, non-toxic/slightly toxic and toxic). The cholesterol level of the dHepaRG cells was measured after a multiple exposure of the highest non-toxic concentrations of tested compounds. […] The expression changes of genes and proteins related to cholesterol metabolism were measured in both single and multiple exposure experiments.\n(§3) All treatments were performed in triplicates and every experiment was performed three times. The cells were washed twice with ice cold phosphate-buffered saline (PBS), scrapped and stored at −80 °C until use. Total RNA from cells was isolated using TriReagent according to the manufacturer’s instructions (Biotech, Prague, Czech Republic). The purified RNA was dissolved in 40 µL of diethyl pyrocarbonate (DEPC)-treated water (0.01% DEPC in HPLC water, autoclaved) and stored at −80 °C. The measurement of absorbance at 260 and 280 nm using the NanoDrop ND-1000 UV–VIS Spectrophotometer (Thermo Fisher Scientific, Pardubice, Czech Republic) was used to determine RNA yields and purity. […] Fluorescence data were recorded at the end of each amplification step. Relative expression levels of the target genes were calculated as fold changes in triplicates for each group using the 2^−ΔΔCt method [28] by normalization to the geometric mean of the Ct values of Sdha and Ywhaz, which were used as reference genes."}, "ACACB mRNA": {"tested_on": "ACACB mRNA", "assay": "RT-qPCR mRNA expression in dHepaRG cells", "format": "cell-based, human", "details": "single exposure, 6, 12 and 24 h", "quoted_text": "as §1"}, "PLIN4 mRNA": {"tested_on": "PLIN4 mRNA", "assay": "RT-qPCR mRNA expression in dHepaRG cells", "format": "cell-based, human", "details": "single exposure, 6, 12 and 24 h", "quoted_text": "as §2, §3"}}, "note": "Read-outs that look alike come from different tables or passages of the source."}
{"compound": "C=C1C(=O)O[C@@H]2C[C@@]3(C)CCC[C@H](C)C3=C[C@H]12", "note": "[ATL, alantolactone]", "values": [{"measurement": "IC50", "setting": "HepG2; ref 9", "result": 33, "unit": "µM"}, {"measurement": "IC50", "setting": "HepG2; ref 35", "result": 7, "unit": "µM"}, {"measurement": "IC50", "setting": "HepG2; ref 36", "result": 30, "unit": "µM"}, {"measurement": "IC50", "setting": "[1]", "result": "10 to 30", "unit": "µM"}, {"measurement": "CYP3A4 mRNA expression", "setting": "CYP3A4 mRNA", "result": "induced"}, {"measurement": "level of free cholesterol and esterified cholesterol", "setting": "dHepaRG cells", "result": "no effect was observed"}, {"measurement": "SCD mRNA level", "setting": "SCD mRNA", "result": "significantly decreased"}, {"measurement": "PLIN2 mRNA", "setting": "PLIN2 mRNA", "result": "induced"}, {"measurement": "ACACB mRNA level", "setting": "ACACB mRNA", "result": "significantly decreased"}, {"measurement": "PLIN4 mRNA level", "setting": "PLIN4 mRNA", "result": "decreased"}]}
{"compound": "CC(C)=C1C/C=C(\\C)CC/C=C(\\C)CC1=O", "note": "[GER, germacrone]", "values": [{"measurement": "IC50", "setting": "HepG2; ref 7", "result": 170, "unit": "µM"}, {"measurement": "IC50", "setting": "HepG2; ref 12", "result": 160, "unit": "µM"}, {"measurement": "IC50", "setting": "HepG2; ref 13", "result": "> 240", "unit": "µM"}, {"measurement": "IC50", "setting": "[1]", "result": "150 to 250", "unit": "µM"}, {"measurement": "CYP3A4 mRNA expression", "setting": "CYP3A4 mRNA", "result": "induced"}, {"measurement": "level of free cholesterol and esterified cholesterol", "setting": "dHepaRG cells", "result": "no effect was observed"}, {"measurement": "SCD mRNA level", "setting": "SCD mRNA", "result": "significantly decreased"}, {"measurement": "PLIN2 mRNA", "setting": "PLIN2 mRNA", "result": "induced"}, {"measurement": "ACACB mRNA level", "setting": "ACACB mRNA", "result": "significantly decreased"}, {"measurement": "PLIN4 mRNA level", "setting": "PLIN4 mRNA", "result": "no significant change"}]}
